This is an account of results in patent US20150112425A1, “DELIVERY OF HIGHLY LIPOPHILIC AGENTS VIA MEDICAL DEVICES” (Abbott Laboratories, priority 2005, published 2015).

Bounds are passed on as bounds.

For series [1] the following is noted: representative summary; cited from earlier work.
A short description of series [2]: Pig model, tissue and blood concentrations of zotarolimus eluted from ZoMaxx stents (FIG. 25). It is filed as in vivo.
Series [3] in a line: Shake-flask octanol/water partition coefficient study of DES drugs (FIG. 20). It is filed as physicochemical. The protocol:
“Solubility” is based on a standard measure used in medicinal chemistry. The octanol-water partition coefficient (P) is the ratio of distribution of a compound in a mixture of 1-octanol and H2O. Log P is the base 10 logarithm of the partition coefficient.
In the measurement of the partition coefficient (octanol/water), preliminary studies were conducted to determine the optimum drug concentration for each test, and the appropriate time for establishing the partition equilibrium. All experiments were carried out by two different analysts and on multiple drug lots.

Series [4] can be described thus: Shake-flask aqueous solubility study of DES drugs (FIG. 20).
The nature of series [5]: Transfer coefficient (P divided by S) of DES drugs (FIG. 21). In kind it is physicochemical. To be noted: P divided by equilibrium aqueous solubility S (μg/ml).

With `CO[C@H]1C[C@@H]2CC[C@@H](C)[C@@](O)(O2)C(=O)C(=O)N2CCCC[C@H]2C(=O)O[C@H]([C@H](C)C[C@@H]2CC[C@H](n3cnnn3)[C@H](OC)C2)CC(=O)[C@H](C)/C=C(\C)[C@@H](O)[C@@H](OC)C(=O)[C@H](C)C[C@H](C)/C=C/C=C/C=C/1C` [Zotarolimus], the “LogP Values” in series [1] was above 4.5. For the same compound, in series [2] (all periods out to 28 days), the “Concentration in arterial tissue adjacent to stent placement” value is given as “substantial concentrations”. Also, the “Concentration in distal, unstented and subjacent myocardium and unstented and distal coronary arteries” value in series [2] (throughout 28 days) is recorded as “therapeutically significant concentrations”. The “Lipophilicity rank among DES drugs tested” value in series [3] is on record as “the most lipophilic of all DES drugs tested”. In addition, the “Aqueous solubility, rank order” value in series [4] (amorphous DES drugs, dexamethasone crystalline) was “increasing order: paclitaxel, zotarolimus, rapamycin, and dexamethasone (crystalline)”. Moreover, in series [4] (shake-flask), the “Solubility in water compared with amorphous rapamycin” value is recorded as “much less soluble in water than amorphous rapamycin”. Besides, in series [5], the “Transfer coefficient, rank order” value is recorded as “zotarolimus>>paclitaxel>>rapamycin>dexamethasone”.
